In the CheMixHub ionic liquid set:

Experiment: xn = mol fraction of the nth substance listed

CCCC[n+]1ccn(C)c1C.F[B-](F)(F)F + CCCCn1cc[n+](C)c1C.O=S(=O)([N-]S(=O)(=O)C(F)(F)F)C(F)(F)F
100 kPa
Settings	electrical conductivity [S/m]
313.15 K, x2 = 0.5	0.313
318.15 K, x2 = 0.3	0.332
318.15 K, x2 = 0.5	0.388
318.15 K, x2 = 0.8	0.493
323.15 K, x2 = 0	0.202
323.15 K, x2 = 0.2	0.398
323.15 K, x2 = 0.3	0.415
323.15 K, x2 = 0.4	0.445
328.15 K, x2 = 0	0.26
333.15 K, x2 = 0.6	0.687
338.15 K, x2 = 0	0.447
338.15 K, x2 = 0.3	0.734
338.15 K, x2 = 0.4	0.774
338.15 K, x2 = 0.6	0.806
348.15 K, x2 = 0.4	1.04
348.15 K, x2 = 0.8	1.23
348.15 K, x2 = 0.9	1.4
353.15 K, x2 = 0.8	1.32
358.15 K, x2 = 0.1	1.33
358.15 K, x2 = 0.5	1.39
358.15 K, x2 = 0.7	1.42
358.15 K, x2 = 0.8	1.49
363.15 K, x2 = 0.5	1.56

CCCC[n+]1ccn(C)c1.O=[N+]([O-])[O-] + CCCO
101 kPa
Settings	viscosity [mPa·s]
288.15 K, x2 = 0.121	176
288.15 K, x2 = 0.471	34.53
293.15 K, x2 = 0.673	11.32
298.15 K, x2 = 0.673	9.79
308.15 K, x2 = 0.471	16.82
313.15 K, x2 = 0.364	21.01
318.15 K, x2 = 0.471	12.54
318.15 K, x2 = 0.554	9.21
323.15 K, x2 = 0.121	31.91
323.15 K, x2 = 0.471	10.97
328.15 K, x2 = 0.471	9.68
328.15 K, x2 = 0.755	3.24
328.15 K, x2 = 0.857	2.14
333.15 K, x2 = 0.554	6.37

CC[n+]1ccn(CCOC)c1.N#C[S-] + CCCO
viscosity [mPa·s], 100 kPa
Settings	x1 = 0.1001	x1 = 0.2	x1 = 0.3001	x1 = 0.4001	x1 = 0.5001	x1 = 0.5719	x1 = 0.701	x1 = 0.7997	x1 = 0.8987	x1 = 1
288.15 K	3.83	5.71	8.65	14.3	20	28.2	39.1	55.7	71.5	93.1
293.15 K	3.38	4.99	7.53	12.15	16.78	23.3	31.8	44.1	56.7	70.8
298.15 K	2.99	4.4	6.62	10.43	13.84	19.7	26.2	35.7	45.6	55.8
303.15 K	2.66	3.94	5.88	9.06	11.68	16.75	21.9	29.3	37.4	44.3
308.15 K	2.39	3.52	5.25	7.95	10.04	13.92	19.2	24.4	31.1	36
313.15 K	2.15	3.16	4.72	7.03	8.8	11.81	16.05	20.6	26	29.7
318.15 K	1.94	2.84	4.24	6.22	7.8	10.16	13.47	17.99	22	24.9
